Test results published in patent US11571481B2, “Peptide-linked drug delivery system” (priority 2020, dated 2023).
“Also recorded” adds a separate entry of the source. Where a SMILES comes first, the peptide text is derived from it. [ ]: non-standard residue; d: D form. The star is where a group is joined. X1 = COc1cc2cc(c1Cl)N(C)C(=O)C[C@H](OC(=O)[C@H](C)N(C)C(=O)CCS*)[C@]1(C)O[C@H]1[C@H](C)[C@@H]1C[C@@](O)(NC(=O)O1)[C@H](OC)/C=C/C=C(\C)C2; βAla = NCCC(=O)O; Mpa = O=C(O)CCS

What was measured:
[1] = test system: orthotopic human UMUC-3/GFP-Luc bladder tumors; test: Therapeutic efficacy of drug-Bdd conjugates for treating BC (orthotopic xenograft)
Method: Therapeutic efficacy of drug-Bdd conjugates for treating BC—Animals were orthotopically implanted with tumors as previously described. Briefly, the urine of 7- to 9-week-old female NSG mice (Jackson Laboratory, Bar Harbor, Me.) was remove through a sterile 24 G pediatric venous catheter (Dublin, Ireland). A trypsin solution (0.125%, 80 μL) was then delivered into the bladder, Subsequently. UMUC-3/GFP-Luc cells (4×10^4 cells) in culture media (50 μL) were transferred into the bladders and allowed for seeding. Tumor progression was monitored by bioluminescence imaging. Luciferin (3 mg) in PBS (100 μL) was given to the animals (via intraperitoneal injection) 15 min prior to performing imaging. […] The therapeutic efficacy was evaluated based on tumor growth inhibition (bioluminescence imaging) and long-term survival.

[2] = Nephrotoxicity studies (urinary NGAL and KIM-1, kidney histology and IHC); type: in vivo, BALB/c mice; details: for induction of KIM-1 and/or NGAL: i.v., at 3 days
Method: The level of the acute renal injury biomarkers, neutrophil gelatinase-associated lipocalin (NGAL) and kidney injury molecule-1 (KIM-1) in the urine samples, were measured using ELISA assays according to the manufacturer's instructions (R&D Systems, Minneapolis, Minn.). […] All the animals (n=3/group) were euthanized at the end of the treatment and the kidneys were collected and fixed in 10% neutral buffered formalin. The tissues were then processed, embedded in paraffin, sectioned, and stained with H&E. Immunohistochemistry (IHC) for kidney injury (NGAL and KIM-1) was also performed.

[3] = Toxicity profile in healthy animals (hematology, serum biochemistry, necropsy); type: in vivo, BALB/c mice; details: for hematology (red blood cell, leukocyte, platelet counts, morphology) / histopathology of liver, spleen, heart, lungs, kidneys / serum liver enzymes (ALP, ALT, AST) / urea nitrogen/creatinine ratio: DM1, DM1-Bdd 0.75 mg/kg
Excerpt: At the end of a 3-week treatment, mice were euthanized. The organs/tissues were harvested, fixed in 10% neutral buffered formalin for 2 days. Bones were decalcified in a formic acid solution (Surgipath Decalcifier I; Leica Biosystems, Weltzar, Germany). The samples were then embedded in paraffin, sectioned (5 μm), and stained with H&E for examination by an ACVP board certified anatomic pathologist.
Hematology and biochemistry—Blood samples were collected via cardiac puncture. A complete blood count, including red blood cell, white blood cell, reticulocyte and platelet counts, with an automated differential leukocyte count, was performed using an IDEXX Procyte DX hematology analyzer (iDEXX, Westbrook, Me.). Blood smears were prepared, stained with modified Wright's stain, examined in a blinded fashion by a board-certified veterinary clinical pathologist (T. S.), and imaged using a Nikon Eclipse TE2000-U fluorescent microscope equipped with a photometrics CoolSNAP HQ^2 camera (Nikon Corporation, Tokyo, Japan). The blood was also centrifuged (1,500×G) for 15 min to obtain the serum for biochemical analysis using a Beckman Coulter AU680 analyzer (Beckman Coulter, Brea, Calif.).

[4] = Fluorescence imaging of Cy-peptide analogues (whole body, urine, ex vivo organs); details: i.v. 0.5 nmol, images 1 and 4 h
Method: Fluorescence imaging—Female SHO mice (Charles River Laboratories, Wilmington, Mass.) were administered with free Cyanine5.5 or Cy-peptide analogues (0.5 nmol of Cyanine5.5 content measured by UV absorbance at 680 nm) in a PBS (150 μL) via tail-vein injections (n=4/group). Real-time fluorescence imaging was performed using In vivo Xtreme imaging system (Bruker, Billerica, Mass.). Whole body fluorescence images were acquired 1 and 4 h post injection using the appropriate excitation (670 nm) and emission (750 nm) filters. The animals were then euthanized. The organs were excised to perform ex vivo fluorescence imaging. Imaging was also performed on urine samples (50 μL) collected from separate animals 1 h after i.v. injection of free dye or Cy-peptide analogues (n=4/treatment). Bruker MI software was used to process the fluorescence/bright light images and measure the fluorescence intensity in different ROIs. All the data were corrected to eliminate the organ or fluid auto-fluorescence.

[5] = test system: Renca/GFP-Luc tumors in kidney capsule; test: Evaluation of DM1-Bdd for kidney cancer treatment (syngeneic orthotopic model); type: in vivo, BALB/c mice
Excerpt: The animals were monitored for tumor growth inhibition and survival as described above. Additional mice were used for histopathological analysis (n=4/group).
Slides were then counterstained with Hematoxylin.

Renca = test: Cell viability and cytotoxicity assay (CellTiter Glo, 72 h); type: cell-based, murine
Method: (§1) Cell viability and cytotoxicity assay—Cancer cells (3×10^3/well) were seeded on a flat bottom 96-well plate overnight. […] CellTiter Glo reagent (Promega, Madison, Wis.) was added in each well (50 μL). The luminescence generated was recorded using a microplate reader (Tecan US Inc., Morrisville, N.C.). The dose response curves were plotted, and the half maximal inhibitory concentrations (IC50 values) were calculated using Graph Pad Prism 6.0 software.

panel of BC cell lines = test: as above; type: cell-based
Method: as §1

UMUC-3 = test: as above; type: cell-based, human; details: UMUC-3, 72 h
Method: as §1

[6] = μPET/CT imaging and end-point biodistribution study of ^89Zr-peptides; type: in vivo, BALB/c mice
Method: μPET/CT imaging and biodistribution study—BALB/c mice were intravenously injected with different ^89Zr-peptide analogues (20 μCi, 100 μL). μPET/CT imaging was performed in animals with and without urine collection prior to the first imaging (n=4/analogue/condition). Whole-body images were acquired 1, 4, and 24 h after injection, using Inveon μPET/CT scanner (Siemens Medical Solutions, Malvern, Pa.). μPET/CT maximum […] projections were processed using Amide v1.0.4 and Inveon Research Workplace software. The radioactivities at different region of interest (ROI) were determined. For end-point biodistribution studies, the mice were euthanized 0.17, 1, 2, 5, and 7 days after treatment with ^89Zr-peptides (n=3/peptide analogue/time point). The radioactivities of the harvested organs were measured using the Wallac Wizard 2 gamma counter. The results were corrected from radioactive decay, and were expressed as a percentage of the injected dose (% ID) or percentage of injected dose per gram of tissue (% ID/g).

[7] = set-up: species or system BALB/c mice; details: mouse, in vivo, iv
Method: Pharmacokinetic study—BALB/c mice (Jackson Laboratory, Bar Harbor, Me.) were administered with ^89Zr-peptide or free ^89Zr (20 μCi, 100 μL) via tail-vein injections (n=4/condition). Blood samples (20 μL) were collected at various time intervals, using retro-orbital sinus puncture technique. The radioactivities were measured on Wallac Wizard 2 gamma counter (Perkin-Elmer, Waltham, Mass.). The pharmacokinetic models and parameters of ^89Zr-peptides and free ^89Zr, including the serum half-life and the plasma clearance, were estimated by fitting the data for compartmental model selection using PKSolver 2.0 software.

[8] = Immunogenicity assay (plasma cytokines by ELISA); type: in vivo, BALB/c mice; details: 5 mg/kg i.v., 4 h after injection
Method: Immunogenicity assay—Female BALB/c mice were treated with a single dose of Bdd or LPS (5 mg/kg) via tail-vein injection (n=3/group). Mice administered with PBS were used as a negative control. Blood samples were collected 4 h later via retro-orbital sinus puncture technique, and the concentration of the innate immune and inflammatory cytokines IL1β, IL2, IL6, IL10, TNF-α, and INF-γ in plasma was measured with commercial sandwich enzyme-linked immunosorbent assay kits. ELISA assays were performed according to the manufacturer's instructions (Invitrogen, Carlsbad, Calif.).

[9] = i.v. 0.75 mg/kg of drug content weekly for 3 weeks
[10] = i.v. weekly for 3 weeks, CIS 10 mg/kg

For `COc1cccc2c1C(=O)c1c(O)c3c(c(O)c1C2=O)C[C@@](O)(C(=O)CO)C[C@@H]3O[C@H]1C[C@H](N)[C@H](O)[C@H](C)O1` [DOX, Doxorubicin], the animal survival ([1]; 5 mg/kg of drug content weekly for 3 weeks) was “shorter life expectancy compared to the PBS control” and the drug-induced mortality ([1]; DOX 5 mg/kg weekly) was “died prior to receiving the final dose”.
With `COc1cc2cc(c1Cl)N(C)C(=O)C[C@H](OC(=O)[C@H](C)N(C)C(=O)CCSSCCC(=O)NCCC(=O)N[C@H](CC(=O)O)C(=O)N[C@H](CC(=O)O)C(=O)NCCC(=O)N[C@H](CC(=O)O)C(=O)N[C@H](CC(=O)O)C(=O)NCCC(=O)N[C@H](CC(=O)O)C(=O)N[C@H](CC(=O)O)C(=O)NCCC(=O)N[C@H](CC(=O)O)C(=O)N[C@H](CC(=O)O)C(N)=O)[C@]1(C)O[C@H]1[C@H](C)[C@@H]1C[C@@](O)(NC(=O)O1)[C@H](OC)/C=C/C=C(\C)C2` [DM1-Bdd] ([Mpa](X1)[βAla][dD][dD][βAla][dD][dD][βAla][dD][dD][βAla][dD][dD]-NH2) the “immunoreactivity of kidney sections for KIM-1 and NGAL compared to PBS” value ([2]; 3 days after i.v. administration) was “no elevation of the immunoreactivity”, the “histologic examination of kidneys” value ([2]; 3 days after i.v. drug administration, CIS 10 mg/kg, DM1-Bdd 0.75 mg/kg) was “did not reveal any abnormalities” and the “time for urinary KIM-1 and NGAL to return to basal levels” value ([2]; single i.v. dose 0.75 mg/kg of drug content) was no more than 3 days. For the same molecule, the “urinary KIM-1 and NGAL levels” value ([2]; single i.v. dose 0.75 mg/kg of drug content, 1 day after injection) was “slightly increased”, the hepatotoxicity [3, 9] was “not hepatotoxic” and the “hematology (red blood cell, leukocyte, platelet counts, morphology)” value [3, 10] was “did not affect”. The “histopathology of liver, spleen, heart, lungs, kidneys” value [3, 10] was “no morphological evidence of injury”, the “serum liver enzymes (ALP, ALT, AST)” value [3, 10] was “no significant alteration” and the urea nitrogen/creatinine ratio [3, 10] was “normal”.
In the case of `CO[C@@]12[C@H](COC(N)=O)C3=C(C(=O)C(C)=C(N)C3=O)N1C[C@@H]1N[C@@H]12` [MIT, Mitomycin], the “induction of KIM-1 and/or NGAL” value [2] is reported as “continued induction”.
In the case of `Nc1ccn([C@@H]2O[C@H](CO)[C@@H](O)C2(F)F)c(=O)n1` [GEM, gemcitabine], the “induction of KIM-1 and/or NGAL” value [2] is reported as “continued induction”.
For Cyanine5.5, the “elimination route / main organ uptake by fluorescence imaging” value [4] was “mainly taken up by the liver”.
For `COc1cc2cc(c1Cl)N(C)C(=O)C[C@H](OC(=O)[C@H](C)N(C)C(=O)CCS)[C@]1(C)O[C@H]1[C@H](C)[C@@H]1C[C@@](O)(NC(=O)O1)[C@H](OC)/C=C/C=C(\C)C2` [DM1, N2′-deacetyl-N2′-(3-mercapto-1-oxopropyl)-maytansine], the survival ([5]; either i.v. or i.t., 0.75 mg/kg weekly) was “died”, the “histological examination of kidneys (tumor)” value ([5]; one week after completing the treatment course) was “large and accompanied with an infiltration of mononuclear cells” and the “animal survival compared to i.t. MIT” value [1, 9] was “prolonged animal survival”. The “tumor growth inhibition compared to i.t. MIT” value [1, 9] was “more effective in inhibiting tumor growth”, the “overall survival after 100 days” value ([1]; i.v. 0.75 mg/kg weekly for 3 weeks) was 0% and the “induction of KIM-1 and/or NGAL” value [2] was “continued induction”. For the same molecule, the “muscle injury (CK activity)” value ([3]; i.v. weekly for 3 weeks, DM1 0.75 mg/kg, CIS 10 mg/kg) was “induced muscle injury”, the “hematology (red blood cell, leukocyte, platelet counts, morphology)” value [3, 10] was “reticulocytosis without apparent anemia; also recorded: inflammatory response characterized by increased proportions of neutrophils, monocytes, and platelets” and the “histopathology of liver, spleen, heart, lungs, kidneys” value [3, 10] was “Increased splenic and hepatic EMH”. The “serum liver enzymes (ALP, ALT, AST)” value [3, 10] was “increases”, the urea nitrogen/creatinine ratio [3, 10] was “increases” and the “activity against Renca cell line” value (Renca) was “effective”. For the same molecule, the “potency relative to commonly used ITC drugs (MIT, DOX and CIS)” value (panel of BC cell lines) was 100 fold, the IC50 values (UMUC-3) was “nanomolar (nM) range” and the “potency compared to other conventional chemotherapeutics” value (UMUC-3) was “more potent than cisplatin (CIS), doxorubicin (DOX) and mitomycin (MIT), and as effective as gemcitabine (GEM)”.
With `CC(=O)N(O)CCCCCNC(=O)CCC(=O)N(O)CCCCCNC(=O)CCC(=O)N(O)CCCCCNC(=S)Nc1ccc(NC(=S)NCCC(=O)N[C@H](CC(=O)O)C(=O)N[C@H](CC(=O)O)C(=O)NCCC(=O)N[C@H](CC(=O)O)C(=O)N[C@H](CC(=O)O)C(=O)NCCC(=O)N[C@H](CC(=O)O)C(=O)N[C@H](CC(=O)O)C(=O)NCCC(=O)N[C@H](CC(=O)O)C(=O)N[C@H](CC(=O)O)C(N)=O)cc1` [^89Zr-Bdd, metal not drawn] (HELM PEPTIDE1{[CC(=O)N(O)CCCCCNC(=O)CCC(=O)N(O)CCCCCNC(=O)CCC(=O)N(O)CCCCCNC(=S)Nc1ccc(NC(=S)[*:2])cc1].[bAla].[dD].[dD].[bAla].[dD].[dD].[bAla].[dD].[dD].[bAla].[dD].[dD].[am]}$$$$V2.0) the “time to excretion into the urine after i.v. administration” value ([6]; i.v., confirmed by absence of radioactivity in emptied bladders) was no more than 1 h, the “ID found in kidneys” value ([6]; mouse, in vivo) was 15.1 % ID and the “ID found in kidneys after 7 days” value ([6]; mouse, in vivo) was 2.1 % ID. The “peptide in major organs or blood circulation” value ([6]; mouse, in vivo, iv) was “No peptide in major organs or blood circulation was detected”, the terminal half-life ([7]; BALB/c) was 31.8 min and the plasma clearance [7] was “rapid”.
For `NCCC(=O)N[C@H](CC(=O)O)C(=O)N[C@H](CC(=O)O)C(=O)NCCC(=O)N[C@H](CC(=O)O)C(=O)N[C@H](CC(=O)O)C(=O)NCCC(=O)N[C@H](CC(=O)O)C(=O)N[C@H](CC(=O)O)C(=O)NCCC(=O)N[C@H](CC(=O)O)C(=O)N[C@H](CC(=O)O)C(N)=O` [Bdd] (HELM PEPTIDE1{[bAla].[dD].[dD].[bAla].[dD].[dD].[bAla].[dD].[dD].[bAla].[dD].[dD].[am]}$$$$V2.0; N-terminus assumed), the “inflammatory cytokine levels (IL-1β, IL-2, IL-6, IL-10, TNF-α, INF-γ) in plasma” value [8] was “no increase”.
